How the values were obtained:
[1] = tested on: MC3T3-E1 subclone 4 cells; test: BMP-2 stimulated PGE2 production by MC3T3 cells (ELISA); type: cell-based, mouse; settings: 24 hours, with BMP-2
Description: Methods: MC3T3-E1 subclone 4 cells are neonatal mouse derived calvarial preosteoblasts with fibroblast morphology. […] For this experiment the MC3T3 cells were plated 10^5 cells per well in 24 well plates in growth medium (alpha MEM+1 mM sodium pyruvate+10% fetal bovine serum (FBS)). After 24 hours of culture the media was removed and replaced with assay media (alphaMEM+1 mM sodium pyruvate+2% FBS) containing the test substances. Each test group utilized 4 wells. After incubation for a further 24 hours the media was removed and the levels of PGE2 were determined using an ELISA (R&D Systems).

[2] = tested on: COX-2 mRNA; test: Gene expression microarray analysis in Clonetics hMSC cells; type: cell-based, human; settings: peptide 1000 ng/ml
Description: Materials and Methods: The effect of the peptide of SEQ ID No. 8 treatment on gene expression was assessed in the Clonetics hMSC cells using gene expression microarray analysis as previously described (Locklin et al., 2001). Briefly, cells were plated in five T-150 vented flasks at a density of 1.0×10^6 cells per flask in growth medium and cultured at 37° C. for 48 hours. Flasks containing either vehicle alone or the peptide of SEQ ID No. 8 (1000 ng/ml) were cultured for 24 hr or for 48 h in standard differentiation medium. At each time point, the vehicle and treatment flasks were trypsinized, cells removed and total RNA was extracted for analysis via the Qiagen Rneasy Kit (Qiagen). 8 μg of total RNA were amplified and biotin labeled. The mixture was hybridized to a U95A human gene expression microarray (Affymetrix) containing probes for 12,600 human genes. The chips were then washed, stained with phycoerythrin-streptavidin and read with an Affymetrix scanner. Hybridization intensity values to mRNA frequency were calculated in molecules per million. Analysis of intensity values was conducted using Spotfire Decision Site (Somerville, Mass.) software.

[3] = tested on: dorsal muscle of mice; test: Ectopic bone formation in mouse dorsal muscle with implanted polymer; type: in vivo, ICR mice
Source text: It has been known that BMP causes bone formation when administered or implanted in mammals when given. The activity can be enhanced when given in the appropriate delivery vehicle.
The mice were sacrificed 3 weeks later and the newly formed bones were isolated for evaluation using soft X-ray radiograph and bone mineral density determination.

[4] = tested on: hemi-calvariae; settings: Middleton-Hardie et al., ASBMR 2005; cited from earlier work
[5] = tested on: primary osteoblasts collected from fetal mouse calvaria; test: Alkaline phosphatase (ALP) activity in primary osteoblasts under suboptimal BMP-2; type: cell-based
Description: The peptide of SEQ ID No. 8 was added to this culture system at 0, 0.2, 0.4, 1.0, 2.0, and 4.0 μM. The levels of ALP were evaluated on days 0, 3, and 7.

[6] = tested on: hard tissue forming cells; test: Biological activities for the purpose of the invention (test not specified)
[7] = tested on: hemi-calvariae; test: Mouse calvaria organ culture assay (PGE2 ELISA, histology); type: cell-based, Swiss Webster mice; settings: peptide 1, 10, 100 μg/mL daily for seven days
Source text: Methods: Calvarial organ cultures have been used for many years to study the regulation of bone formation and bone resorption. An advantage of this method compared to in vivo studies is the absence of confounding effects (such as hormonal and mechanical influences) meaning a more direct effect of the test substances on bone tissue can be determined. Also compared to isolated cell systems, interrelationships between the different cell types in the bone and between these cells and the bone matrix are preserved.
Briefly, hemi-calvariae were isolated from 4 day old Swiss Webster mice and incubated in media on steel mesh grids. The peptide of SEQ ID NO. […] Samples of the conditioned media were collected daily for analysis of PGE2 concentration (R&D Systems ELISA kit). At the end of the culture the bones were analyzed for new bone formation and number of osteoblasts using histology.

[8] = tested on: human mesenchymal cells; test: PGE2 in human mesenchymal cells in culture; type: cell-based; settings: peptide alone
[9] = tested on: COX-2 mRNA; settings: Nagel et al., Journal of Cellular Biochemistry, 2004; cited from earlier work

TDLQERGDNDISPFSGDGQPFKD [SEQ ID No. 8]
BMP-2 induced PGE2 production [1]: increases
COX-2 mRNA increase (summary in discussion) [2]: ~3 fold
COX-2 mRNA increase ([2]; 24 h): 3.6 fold
COX-2 mRNA increase ([2]; 48 h): 2.2 fold
Effect of the peptide on BMP-2 bone formation (size and mineral density of ectopic ossicles) ([3]; 3 μg BMP-2 in 30 mg polymer, peptide 50, 250 or 1250 μg, three weeks): significant enhancement
Bone formation when peptide added to suboptimal dose of rhBMP-2 ([3]; 3 μg rhBMP-2, varying amounts of peptide): significant and dose dependent increase
Efficacy of the peptide on bone formation (size and mineral density of ectopic ossicles) ([3]; 5 μg BMP-2 in 30 mg polymer, peptide 50, 250 or 1250 μg, three weeks): unclear
production of PGE2 in mouse calvaria organ culture assay [4]: dose dependently upregulated
ALP activity increase as compared with BMP-2 treated cells without the peptide ([5]; 2 μM peptide with 25 ng/mL BMP-2): ~2 times
ALP activity in osteoblastic cells ([5]; BMP-2 25 ng/mL plus peptide 0.2-4.0 μM, dose dependent): significantly increased
Biological activities relative to other sequences [6]: highest activities
PGE2 production [7]: significant increases
bone cell density ([7]; histology): significant increases
osteoblast surface ([7]; histology): significant increases
parameters of new bone formation ([7]; histology): significant increases
PGE2 increase [8]: did not result in a significant increase
COX-2 in human mesenchymal stem cells [9]: upregulated
